Earlier results in article PMC3131558, “Plitidepsin Has a Safe Cardiac Profile: A Comprehensive Analysis” (Marine Drugs, 2011).

Conditions: possible class effect of HDACI inhibitors; cited from earlier work
Text: Plitidepsin has neither shown cardiac toxicity during preclinical/toxicology studies nor has been reported in early phase I clinical trials.

| Compound | Electrocardiogram (ECG) abnormalities |
| --- | --- |
| O=C(/C=C/c1ccc(CN(CCO)CCc2c[nH]c3ccccc23)cc1)NO [LAQ824] | reported |
| Cc1[nH]c2ccccc2c1CCNCc1ccc(/C=C/C(=O)NO)cc1 [LBH589] | reported |
